Results from publication PMC4728661, “Cancer Prevention and Health Benefices of Traditionally Consumed Borago officinalis Plants” (Nutrients, 2016).
Values joined by “and” are separate entries in the source; they are usually repeats but may differ in a detail not shown here. Equal entries are not always repeated. Marks after values point to notes of the source that are not given here.

Tests used:
D. melanogaster [1] = assay: Toxicity: survival of Drosophila larvae to emerged adults, simple and combined (H2O2) treatments; format: in vivo, Drosophila melanogaster
Experimental: Optimal fertile flies were anesthetized under CO2 narcotisation for cross selection and then placed in new vials for fertilization. After that, hybrid eggs from crossing were collected over an 8 h period and emerged larvae (72 ± 4 h later) were cleaned up for a few seconds in sterile distilled water to remove feeding medium rests. […] Bioactive compound concentrations were chosen on the basis of their known content in B. officinalis species. […] Larvae were fed on these media until pupation (about 48 h). After emergence, resulting adult flies were sacrificed under CO2 narcotisation and stored in a 70% ethanol solution in sterile water. […] The determination of Toxicity (T) of treatments in D. melanogaster was performed following this formula [39]: T = (N° of emerging individuals in treatment/N° of emerging individuals in the negative control) × 100(1) Differences in D. melanogaster survival between treatments at each concentration with respect to negative control were analyzed with a Chi-square test. This procedure was also performed for the analysis of each simple treatment with their correspondent combined treatment.

HL-60 cells = assay: Cytotoxicity: HL-60 growth/viability, Trypan Blue dye exclusion; format: cell-based, human; settings: RO (alone or in the mixture) at concentrations over 0.55 mM, 72 h
Experimental: The human acute promyelocytic leukemia cell line HL-60 was routinely grown in suspension in RPMI medium (Invitrogen, Madrid, Spain) containing glutamine ([…], Sigma-Aldrich, St. Louis, MO, USA), antibiotics (100IU penicillin mL^−1 and 100 μg streptomycin mL^−1, Sigma-Aldrich) and supplemented with 10% heat-inactivated foetal bovine serum (Linus, Cultek, Madrid, Spain) and placed in an incubator (Shel Lab, Cornelious, OR, USA) with a 5% CO2 humidified atmosphere at 37 °C [36]. HL-60 cells were subcultured every 2–3 days to maintain logarithmic growth and they were allowed to grow for 48 h before use. Cultures were plated at a density of 12.5 × 10^4 cells mL^−1 in 40 mL culture flasks (25 cm^2). Cytotoxic activity was measured as growing inhibition or decreased viability on HL-60 cells following a previous protocol modified by us. […] Cells were counted after 72 h treatment. Tested concentrations were calculated according to those used for in vivo assays to equal the range of tested doses. Untreated cultures were used as negative control. Cell viability was determined by the Trypan Blue dye exclusion test. Cells were stained with an equal volume of Trypan Blue commercial solution (Sigma-Aldrich) and counted using a hemocytometer at room temperature under a light inverted microscope (AE30/31, Motic, Barcelona, Spain). Cytotoxic effect evaluation was determined after each culture incubation period, establishing a growth curve and determining IC50 values by regression analysis of the curves. Viability estimated regressions of leukemia cells are presented as a survival percentage with respect to controls at 72 h growth and plotted as mean viability ± standard error of at least three independent replicas for each treatment and concentration.

D. melanogaster [2] = assay: Antigenotoxicity: SMART, combined treatments with H2O2 0.12 M; format: in vivo, Drosophila melanogaster; for Diagnosis, Large Single Spots >2 Cells m = 5: key: + (positive); − (negative); for Diagnosis, Small Single Spots 1–2 Cells m = 2: key: + (positive); − (negative); for Diagnosis, Total Spots m = 2: key: + (positive); − (negative); for Diagnosis, Twin Spots m = 5: key: + (positive); − (negative)
Experimental: The D. melanogaster system was selected for the determination of the safety of B. officinalis consumption as a well-recognized method to analyze vegetable complex mixtures using SMART [31, 32]. This test was used in order to evaluate the genotoxic and antigenotoxic activity of B. officinalis leaves and petioles as well as their selected bioactive compounds [33]. This activity was measured by direct visualization of the occurrence of recessive mutations in the wing hairs of two different D. melanogaster strains. Flies from experiments carried these visible wing genetic markers: the flare (flr) strain […]) TM3, Bd^s and the multiple wing-hair (mwh) strain […] [35]. The marker flare (flr^3, 3_38.3) produces individual malformed hairs and the marker multiple wing hairs (mwh, 3_0.3) produces multiple hairs per cell. Larvae used in treatments come from two types of crosses: the standard cross with flr^3/TM3, Bd^S females mated to […] and the reciprocal cross. Optimal fertile flies were anesthetized under CO2 narcotisation for cross selection and then placed in new vials for fertilization. After that, hybrid eggs from crossing were collected over an 8 h period and emerged larvae (72 ± 4 h later) were cleaned up for a few seconds in sterile distilled water to remove feeding medium rests. […] Bioactive compound concentrations were chosen on the basis of their known content in B. officinalis species. […] Larvae were fed on these media until pupation (about 48 h). After emergence, resulting adult flies were sacrificed under CO2 narcotisation and stored in a 70% ethanol solution in sterile water. […] For the evaluation of genotoxic effects, the frequencies of spots per fly of each treated series were compared to the concurrent negative control for each class of mutational clone as well as between simple and combined treatments for the same concentration comparisons. […] A multiple-decision procedure was used to categorize results as positive, inconclusive or negative. Inconclusive and positive results were evaluated by the non-parametric U test of Mann, Whitney and Wilcoxon. The inhibition percentage (IP) of genotoxicity was calculated from the total frequencies of spots per wing, following this formula [42]: IP = (genotoxin alone - sample + genotoxin) × 100/(genotoxin alone)(2) Significant differences of IP for each treatment respect to the positive control were analyzed with a Chi-square test.

[3] = combined with 0.12 M H2O2, 0.35 mM RO
[4] = combined with 0.12 M H2O2, 0.7 mM RO
[5] = combined with 0.12 M H2O2, 1.39 mM RO
[6] = combined with 0.12 M H2O2, 2.78 mM RO

SMILES: O=C(/C=C/c1ccc(O)c(O)c1)O[C@H](Cc1ccc(O)c(O)c1)C(=O)O [RO, rosmarinic acid]
- Survival average in combined treatments (D. melanogaster [1]; average of the four concentrations, combined with 0.12 M H2O2): 41.28
- Survival (D. melanogaster [1]; [3]): 49.56 * %
- Survival (D. melanogaster [1]; [4]): 31.11 *^,‡ %
- Survival (D. melanogaster [1]; [5]): 45.56 *^,‡ %
- Survival (D. melanogaster [1]; [6]): 38.89 *^,‡ %
- Survival (D. melanogaster [1]; simple treatment, 0.35 mM RO): 48.44 * %
- Survival (D. melanogaster [1]; simple treatment, 0.7 mM RO): 22.22 * %
- Survival (D. melanogaster [1]; simple treatment, 1.39 mM RO): 33.33 * %
- Survival (D. melanogaster [1]; simple treatment, 2.78 mM RO): 21.33% and 21.33 * %
- Viable HL-60 cells (HL-60 cells): no viable cells could be detected
- Diagnosis, Small Single Spots 1–2 Cells m = 2 (D. melanogaster [2]; [3]): −
- Diagnosis, Total Spots m = 2 (D. melanogaster [2]; [3]): −
- Mutation rate, Large Single Spots >2 Cells m = 5 (D. melanogaster [2]; [3]): 0 spots/wing
- Mutation rate, Small Single Spots 1–2 Cells m = 2 (D. melanogaster [2]; [3]): 0.17 (5) spots/wing
- Mutation rate, Total Spots m = 2 (D. melanogaster [2]; [3]): 0.17 (5) spots/wing
- Mutation rate, Twin Spots m = 5 (D. melanogaster [2]; [3]): 0 spots/wing
- Diagnosis, Large Single Spots >2 Cells m = 5 (D. melanogaster [2]; [4]): −
- Diagnosis, Small Single Spots 1–2 Cells m = 2 (D. melanogaster [2]; [4]): −
- Diagnosis, Total Spots m = 2 (D. melanogaster [2]; [4]): −
- Diagnosis, Twin Spots m = 5 (D. melanogaster [2]; [4]): −
- Mutation rate, Large Single Spots >2 Cells m = 5 (D. melanogaster [2]; [4]): 0.08 (3) spots/wing
- Mutation rate, Small Single Spots 1–2 Cells m = 2 (D. melanogaster [2]; [4]): 0.35 (14) spots/wing
- Mutation rate, Total Spots m = 2 (D. melanogaster [2]; [4]): 0.45 (18) spots/wing
- Mutation rate, Twin Spots m = 5 (D. melanogaster [2]; [4]): 0.03 (1) spots/wing
- Diagnosis, Large Single Spots >2 Cells m = 5 (D. melanogaster [2]; [5]): −
- Diagnosis, Small Single Spots 1–2 Cells m = 2 (D. melanogaster [2]; [5]): −
- Diagnosis, Total Spots m = 2 (D. melanogaster [2]; [5]): −
- Mutation rate, Large Single Spots >2 Cells m = 5 (D. melanogaster [2]; [5]): 0.14 (3) spots/wing
- Mutation rate, Small Single Spots 1–2 Cells m = 2 (D. melanogaster [2]; [5]): 0.14 (3) spots/wing
- Mutation rate, Total Spots m = 2 (D. melanogaster [2]; [5]): 0.27 (6) spots/wing
- Mutation rate, Twin Spots m = 5 (D. melanogaster [2]; [5]): 0 spots/wing
- Diagnosis, Small Single Spots 1–2 Cells m = 2 (D. melanogaster [2]; [6]): −
- Diagnosis, Total Spots m = 2 (D. melanogaster [2]; [6]): −
- Diagnosis, Twin Spots m = 5 (D. melanogaster [2]; [6]): −
- Mutation rate, Large Single Spots >2 Cells m = 5 (D. melanogaster [2]; [6]): 0 spots/wing
- Mutation rate, Small Single Spots 1–2 Cells m = 2 (D. melanogaster [2]; [6]): 0.21 (11) spots/wing
- Mutation rate, Total Spots m = 2 (D. melanogaster [2]; [6]): 0.25 (13) spots/wing
- Mutation rate, Twin Spots m = 5 (D. melanogaster [2]; [6]): 0.04 (2) spots/wing
